15 molecules from ChEMBL document CHEMBL3860062, “Synthesis and biological evaluation of novel hydrogen sulfide releasing nicotinic acid derivatives” (Bioorg Med Chem, 2016) can be followed below.

Series [1] has as its system HT-22. Description: Neuroprotective activity against glutamate-induced neuronal cell damage in mouse HT22 cells assessed as cell survival rate at 100 uM after 24 hrs by MTT assay (reference value: 12.49 to 43.44%). In kind it is functional. Conditions: HT-22, 24 h, read-out: Survival. For orientation: Tetrazolium assays rely on reduction of a dye to a coloured formazan, in cell work by metabolically active cells.

For series [2], the system named is HT-22. Description: Neuroprotective activity against glutamate-induced neuronal cell damage in mouse HT22 cells assessed as cell survival rate at 10 uM after 24 hrs by MTT assay (reference value: 12.49 to 43.44%). The format is functional. Conditions: HT-22, 24 h, read-out: Survival.
Series [3] relates to HT-22. The series can be described thus: Neuroprotective activity against glutamate-induced neuronal cell damage in mouse HT22 cells assessed as cell survival rate at 50 uM after 24 hrs by MTT assay (reference value: 12.49 to 43.44%). In kind it is functional. Conditions: HT-22, 24 h, read-out: Survival.
The nature of series [4]: Cytotoxicity against mouse HT22 cells assessed as cell survival rate at 100 uM after 24 hrs by MTT assay. The format is toxicity, HT-22. The note with it: read-out: Survival.
The test system of series [5] is HT-22. The series can be described thus: Neuroprotective activity against glutamate-induced neuronal cell damage in mouse HT22 cells assessed as cell survival rate at 1 uM after 24 hrs by MTT assay (reference value: 12.49 to 43.44%). The format is functional. Conditions: HT-22, 24 h, read-out: Survival.
The subject of series [6] is Mus musculus. The series can be described thus: Protection against focal cerebral ischemia in ICR mouse model of […] assessed as infarct volume of hemisphere at 100 mg/kg, ip dosed 3 hrs post reperfusion measured 48 hrs post MCAO by TTC staining based assay (reference value: 44.98%). The format is functional.
Series [7] has as its system Mus musculus. Description: Protection against focal cerebral ischemia in ICR mouse model of […] assessed as infarct volume of striatum at 100 mg/kg, ip dosed 3 hrs post reperfusion measured 48 hrs post MCAO by TTC staining based assay (reference value: 56.18%). The format is functional.
For series [8], the system named is HT-22. Description: Neuroprotective activity against glutamate-induced neuronal cell damage in mouse HT22 cells assessed as increase in cell viability at 1 to 100 uM after 24 hrs by MTT assay relative to glutamate. In kind it is functional.
Series [9] has as its system Mus musculus. The series can be described thus: Protection against focal cerebral ischemia in ICR mouse model of […] assessed as infarct volume of […] at 100 mg/kg, ip dosed 3 hrs post reperfusion measured 48 hrs post MCAO by TTC staining based assay (reference value: 62.75%). In kind it is functional.
Series [10] has as its system Mus musculus. The series can be described thus: Protection against focal cerebral ischemia in ICR mouse model of […] assessed as reduction in infarct volume administered ip 3 hrs post reperfusion measured 48 hrs post MCAO by TTC staining based assay. In kind it is functional.
A further series deals with Rattus norvegicus. Description: Protection against focal cerebral ischemia in Wistar rat model of […] assessed as reduction in infarction volume administered ip at 2 hrs post reperfusion measured 3 days post MCAO. The format is functional.

Turning to `O=C(OCCCCCOc1ccc(-c2cc(=S)ss2)cc1)c1cccnc1`, the viability at 100 µM in the series with HT-22 [1] was determined as 82.2%. The viability at 10 µM in the series with HT-22 [2] worked out at 92.5%. Also, the viability at 50 µM with HT-22 [3] worked out at 93.3%. Moreover, the viability at 24 h, 100 µM in series [4] was found to be 100%. Besides, in the series with HT-22 [5], the viability at 1 µM came to 52.9%.

For `O=C(OCCCCCCCCCOc1ccc(-c2cc(=S)ss2)cc1)c1cccnc1`, the viability at 100 µM in the series on HT-22 [1] turned out to be 70.4%. The viability at 10 µM in the series on HT-22 [2] was 101%. Besides, the viability at 50 µM with HT-22 [3] is 80.6%. For the same molecule, in [4], the viability at 24 h, 100 µM was 70.4%. The viability at 1 µM with HT-22 [5] worked out at 108%.

Turning to `O=C(CNC(=O)c1cccnc1)OCCCCOc1ccc(-c2cc(=S)ss2)cc1`, the viability at 100 µM in the series with HT-22 [1] amounted to 99%. In the series with HT-22 [2], the viability at 10 µM stood at 87.4%. Further, the viability at 50 µM in the series with HT-22 [3] came to 100%. In addition, in [4], the viability at 24 h, 100 µM amounted to 100%. For the same molecule, in the series with HT-22 [5], the viability at 1 µM turned out to be 69.2%.

`O=C(OCCOc1ccc(-c2cc(=S)ss2)cc1)c1cccnc1`: the viability at 100 µM in the series on HT-22 [1] was 102%. For the same molecule, the viability at 10 µM in the series on HT-22 [2] came out at 80.8%. The viability at 50 µM in the series on HT-22 [3] was found to be 91.5%. Besides, in series [4], the viability at 24 h, 100 µM was determined as 100%. Besides, the viability at 1 µM in the series with HT-22 [5] amounted to 57.9%.

As for `O=C(N[C@@H](Cc1ccccc1)C(=O)OCCCCOc1ccc(-c2cc(=S)ss2)cc1)c1cccnc1`, the viability at 100 µM with HT-22 [1] came to 101%. The viability at 10 µM in the series on HT-22 [2] is 87.7%. For the same molecule, the viability at 50 µM in the series with HT-22 [3] came out at 101%. For the same molecule, in series [4], the viability at 24 h, 100 µM turned out to be 100%. Besides, the viability at 1 µM in the series with HT-22 [5] turned out to be 64.7%.

`O=C(Oc1ccc(-c2cc(=S)ss2)cc1)c1cccnc1`: the viability at 100 µM in the series on HT-22 [1] stood at 78.3%. For the same molecule, in the series on HT-22 [2], the viability at 10 µM was determined as 64.2%. Moreover, in the series on HT-22 [3], the viability at 50 µM turned out to be 82.4%. Besides, the viability at 24 h, 100 µM in series [4] was found to be 100%. Further, in the series with HT-22 [5], the viability at 1 µM worked out at 43.3%.

For the molecule `O=C(OCCCCOc1ccc(-c2cc(=S)ss2)cc1)c1cccnc1`, in the series on HT-22 [1], the viability at 100 µM was 93.5%. In addition, the viability at 10 µM in the series on HT-22 [2] was 94.8%. For the same molecule, the viability at 50 µM in the series on HT-22 [3] was 87.9%. Also, in [4], the viability at 24 h, 100 µM stood at 52.9%. Moreover, the viability at 1 µM in the series with HT-22 [5] amounted to 66.9%.

Turning to `O=C(OCCCCCCOc1ccc(-c2cc(=S)ss2)cc1)c1cccnc1`, the viability at 100 µM in the series on HT-22 [1] is 71.3%. Besides, the viability at 10 µM with HT-22 [2] is 83.2%. Besides, the Activity with Mus musculus [6] was determined as 25.93%; with Mus musculus [7], 23.04%; in the series on Mus musculus [9], 38.01%. Moreover, in the series with HT-22 [8], the “fold change (FC)” value worked out at 6. For the same molecule, the viability at 50 µM with HT-22 [3] stood at 78.2%. For the same molecule, the viability at 24 h, 100 µM in series [4] came to 100%. Further, the viability at 1 µM in the series with HT-22 [5] worked out at 82.6%. In the series on Mus musculus [10], the MED is 100 mg/kg.

Take `O=C(OCCCCCCCCOc1ccc(-c2cc(=S)ss2)cc1)c1cccnc1`: in the series on HT-22 [1], the viability at 100 µM was determined as 82.3%. For the same molecule, in the series with HT-22 [2], the viability at 10 µM came out at 78%. Moreover, the viability at 50 µM with HT-22 [3] was found to be 76.3%. For the same molecule, the viability at 24 h, 100 µM in [4] worked out at 100%. Besides, the viability at 1 µM in the series with HT-22 [5] is 82.5%.

`C[C@H](NC(=O)c1cccnc1)C(=O)OCCCCOc1ccc(-c2cc(=S)ss2)cc1`: the viability at 100 µM in the series with HT-22 [1] turned out to be 71.1%. In addition, the viability at 10 µM in the series on HT-22 [2] was found to be 75.5%. The viability at 50 µM with HT-22 [3] came to 77.9%. Further, the viability at 24 h, 100 µM in [4] came out at 100%. Further, the viability at 1 µM with HT-22 [5] turned out to be 68.7%.

Regarding `CC(C)[C@H](NC(=O)c1cccnc1)C(=O)OCCCCOc1ccc(-c2cc(=S)ss2)cc1`, the viability at 100 µM with HT-22 [1] is 68.1%. Moreover, in the series with HT-22 [2], the viability at 10 µM amounted to 72.4%. Besides, the viability at 50 µM in the series on HT-22 [3] is 70.8%. In series [4], the viability at 24 h, 100 µM came out at 68%. The viability at 1 µM with HT-22 [5] was found to be 73.3%.

For the molecule `O=C(OCCCOc1ccc(-c2cc(=S)ss2)cc1)c1cccnc1`, the viability at 100 µM in the series with HT-22 [1] was 89.8%. Moreover, the viability at 10 µM with HT-22 [2] is 87.2%. Moreover, in the series with HT-22 [3], the viability at 50 µM was 93.4%. Further, the viability at 24 h, 100 µM in series [4] was found to be 100%. In the series on HT-22 [5], the viability at 1 µM is 33.7%.

In the case of `Oc1ccc(-c2cc(=S)ss2)cc1`, the viability at 100 µM with HT-22 [1] was found to be 76.4%. Besides, the viability at 10 µM with HT-22 [2] amounted to 52.2%. For the same molecule, the viability at 50 µM in the series on HT-22 [3] stood at 104%. Besides, the viability at 1 µM in the series on HT-22 [5] is 33.4%.

For `NC(=O)c1cccnc1` [NIACINAMIDE], the MED in the series with Rattus norvegicus is 500 mg/kg.

As for `O=C(O)c1cccnc1` [NIACIN], in the series with HT-22 [1], the viability at 100 µM is 75.3%. Also, the viability at 10 µM in the series with HT-22 [2] is 58.9%. Moreover, the viability at 50 µM with HT-22 [3] stood at 63.8%. Besides, in the series on HT-22 [5], the viability at 1 µM amounted to 56.2%.
